Measurements taken from patent publication US8501166B2, “Pyrimidinyl indole compounds” (Hutchison Medipharma Limited, priority 2010, dated 2013).
Structures can show the parent of a compound that is named as a salt.

Legend:
IKKβ = molecular target: T1, IKKβ (Homo sapiens, UniProt O14920); test: IKKβ kinase assay (IKKβ-Inhibitor Screening Kit, ELISA); format: biochemical; details: IKKβ-Inhibitor Screening Kit (Calbiochem), GST-IκBα substrate
T1 sequence (O14920 1-756): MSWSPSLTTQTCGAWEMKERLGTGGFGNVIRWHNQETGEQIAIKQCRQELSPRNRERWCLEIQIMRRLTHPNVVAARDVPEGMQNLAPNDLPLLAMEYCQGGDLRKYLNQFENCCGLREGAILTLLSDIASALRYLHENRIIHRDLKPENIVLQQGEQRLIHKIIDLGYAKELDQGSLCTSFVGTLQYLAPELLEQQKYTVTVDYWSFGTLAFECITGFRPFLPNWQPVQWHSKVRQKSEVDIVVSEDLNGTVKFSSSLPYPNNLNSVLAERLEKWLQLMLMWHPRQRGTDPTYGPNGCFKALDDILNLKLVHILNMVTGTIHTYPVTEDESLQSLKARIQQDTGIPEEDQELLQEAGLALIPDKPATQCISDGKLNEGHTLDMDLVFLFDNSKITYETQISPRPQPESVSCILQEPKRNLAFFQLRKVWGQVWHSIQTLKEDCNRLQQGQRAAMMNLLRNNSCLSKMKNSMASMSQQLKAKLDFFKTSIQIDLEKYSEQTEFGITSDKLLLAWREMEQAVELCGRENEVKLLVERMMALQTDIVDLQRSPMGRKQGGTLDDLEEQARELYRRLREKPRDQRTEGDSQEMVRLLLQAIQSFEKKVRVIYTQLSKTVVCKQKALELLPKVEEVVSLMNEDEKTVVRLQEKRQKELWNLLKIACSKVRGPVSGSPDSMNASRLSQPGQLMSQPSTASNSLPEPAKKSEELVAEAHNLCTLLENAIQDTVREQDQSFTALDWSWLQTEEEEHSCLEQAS
Experimental: The IKKβ kinase assay is used to assess the effect of a compound of the present invention on the enzymatic activity of IKKβ kinase. The IKKβ kinase assay is performed in vitro using an IKKβ-Inhibitor Screening Kit (Calbiochem., Cat.No. CBA044). All reactions (50 μL) are started by adding 10 μL of kinase buffer (kit component, No. JA9130), 10 μL of GST-IKBa substrate (IKKb substrate, kit component, No. JA9127), 10 μL of IKKβ (2.5 ng/well, kit component, No. 481404), 10 μL of the test compound (DMSO solution) or H2O, and 10 μL of ATP/MgCl2 (kit component, No. JA7914) and then incubating at 30° C. for 30 min. The contents of the wells are then discarded. Each well is washed 3 times with 200 μL 1× wash buffer (kit component, NO. JA1617, 1:20 dilution). 100 μL of anti-phospho IκBα (Ser^32/Ser^36) antibody conjugate (kit component, No. JA9126) is added to each well and incubated at room temperature for 1 h. Then the wells are washed 3 times with 1× wash buffer (kit component, NO. JA1617, 1:20 dilution), […] and 100 μL HRP-conjugate (kit component, No. JA7643) is added to each well and incubated at room temperature for 1 h. Then the wells are washed 3 times with 200 μL 1× wash buffer (kit component, NO. JA1617, 1:20 dilution) and 100 μL TMB substrate conjugate (kit component, No. JA1608) is added to each well. The plate is incubated at room temperature until the color changes. […]

[1] = tested on: LPS-induced plasma TNFα production; test: LPS-induced cytokine production in rat plasma; format: in vivo, Lewis rats; details: oral 1 h before LPS 0.4 mg/kg i.p.
Experimental: Alternately, the compound is screened for its ability to inhibit the LPS-induced cytokine production in rat plasma according to the method reported in the literature (Ziegelbauer K, Gantner F, Lukacs N W, et al. Br J. Pharmacol. 2005,145(2):178-92). Briefly, Lewis rats (male, body weight 140 g-180 g) are used in the experiments. Animals (8/group) are given 1 to 100 mg/kg of the testing compound (suspension in 35% solutol & 60% PEG400 & 5% PG) or vehicle by oral gavage at 1 h prior to intraperitoneal administration of LPS 0.4 mg/kg. Ninety minutes after the intraperitoneal administration of LPS, blood is collected in heparin anticoagulated tubes to measure TNFα using R&D System ELISA Kit based on the general Kit protocols. The plasma sample is diluted 100 fold with the dilution buffer and 50 μL of diluted sample is used in each measurement. The plate is read on a SPECTRAMAX® M2e Plus Plate Reader and TNFα levels are analyzed based on the standard curve. The drug levels in plasma are measured with LC-MS-MS. […] Alternately, the compound is screened for its ability to inhibit the LPS-induced cytokine production in mouse plasma. Balb/c mice (female, body weight 18-20 g) are used in the experiments. […] The plate is read on a SPECTRMAX® M2e Plus Plate Reader and the data is analyzed using a standard curve.

Row | IC50 (IKKβ) | EC50 ([1]; read-out: EC50, plasma TNFα production (drug level in plasma)) | Structure (SMILES) | ED50 [1]
1 | 0.015 µM | – | O=C(NC1CC1)c1cccc2[nH]c(-c3nc(N[C@@H]4CCC[C@@H]4O)ncc3Cl)cc12 [Example 1, 2-{5-Chloro-2-[(1R,2S)-2-hydroxycyclopentylamino]pyrimidin-4-yl}-N-cyclopropyl-1H-indole-4-carboxamide hydrochloride] | –
2 | – | 4.04 ± 1.28 mg/L | Cl.O=C(NC1CC1)c1cccc2[nH]c(-c3nc(N[C@@H]4CCC[C@H]4O)ncc3Cl)cc12 [Example 2, 2-{5-Chloro-2-[(1R,2R)-2-hydroxycyclopentylamino]pyrimidin-4-yl}-N-cyclopropyl-1H-indole-4-carboxamide hydrochloride] | 19.8 ± 10.9 mg/kg
